In general, Kd refers to the equilibrium constant for the complex coming apart.

This is an account of results in patent US9675592B2, “Methods and compositions for bacteria infections” (priority 2013, dated 2017).

SMILES strings stand for the structures.

The target of assay [1] is cytoplasmic domain of VraS (VraS-C) (Staphylococcus aureus, UniProt Q99SZ7). The assay is described as follows: biochemical. The note with it: new run with His-tagged VraS; NB = No Binding; read-out: KD VraS. Type of assay: binding.
Chain of cytoplasmic domain of VraS (VraS-C) (Q99SZ7 70-347): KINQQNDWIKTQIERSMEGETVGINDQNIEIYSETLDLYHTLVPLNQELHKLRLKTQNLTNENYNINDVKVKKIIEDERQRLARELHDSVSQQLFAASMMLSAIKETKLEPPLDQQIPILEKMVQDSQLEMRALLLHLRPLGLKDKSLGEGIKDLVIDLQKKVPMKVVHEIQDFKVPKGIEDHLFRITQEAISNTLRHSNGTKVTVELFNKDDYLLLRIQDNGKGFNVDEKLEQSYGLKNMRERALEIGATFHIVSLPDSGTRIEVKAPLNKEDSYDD
A further assay concerns the target VraR (Staphylococcus aureus, UniProt Q7A4R9). The assay is described as follows: biochemical. The note with it: His-tagged VraR; NB = No Binding. Type of assay: binding.
For assay [2], the target named is PurC (unrelated protein, control) (Bacillus anthracis, UniProt Q81ZH5). The class given is binding. Particulars: read-out: KD PurC (control).
Chain of PurC (unrelated protein, control) (Q81ZH5 whole entry, looked up): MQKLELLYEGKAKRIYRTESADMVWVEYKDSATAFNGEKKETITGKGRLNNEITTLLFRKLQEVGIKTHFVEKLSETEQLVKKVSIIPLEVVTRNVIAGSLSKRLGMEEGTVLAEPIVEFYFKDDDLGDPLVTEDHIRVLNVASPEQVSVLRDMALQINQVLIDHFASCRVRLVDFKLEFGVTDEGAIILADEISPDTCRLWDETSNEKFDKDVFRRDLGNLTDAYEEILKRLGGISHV
The test system of assay [3] is test strain 923 pPvra-lux. The assay is described as follows: Secondary screen / synergy confirmation of Top 40, relative growth with oxacillin. Type of assay: cell-based, Staphylococcus aureus. Particulars: Top 40 library, compound at maximum non-GI conc. The method, then: In the secondary screen each microtiter plate contained either cells in TSB alone (16 replicates), cells with oxacillin (2 μg/mL, 31 replicates), or cells with test compound and oxacillin (2 μg/mL, 49 wells). Each compound was assayed in four separate biological replicates.
Synergy Confirmation of “Top 40”. […]

Assay [4] concerns vraSR promoter (Pvra-lux reporter in strain 923). Type of assay: cell-based, Staphylococcus aureus. The note with it: for RL Ox avg: Top 40 library, with oxacillin, compound at maximum non-GI conc; for vraSR repressing synergist: overall class from syn and rep. The procedure:
In the secondary screen each microtiter plate contained either cells in TSB alone (16 replicates), cells with oxacillin (2 μg/mL, 31 replicates), or cells with test compound and oxacillin (2 μg/mL, 49 wells). Each compound was assayed in four separate biological replicates. […]

In assay [5] the test system is test strain (923 pPvra-lux). Kind of assay: Growth inhibition by compound alone (maximum non-growth-inhibitory concentration). Type of assay: cell-based, Staphylococcus aureus. The note with it: compound alone; maximum concentration where it did NOT inhibit growth.
A further assay relates to multiple strains of MRSA. Kind of assay: MICs (minimal inhibitory concentrations) vs multiple strains of MRSA. The class given is cell-based, Staphylococcus aureus.
For assay [6], the system named is test strain 923 pPvra-lux (USA300 MRSA). The assay is described as follows: Primary screen, relative growth in presence of oxacillin. Particulars: compound 10 μM with oxacillin 2 μg/mL, absorbance 24 h, <0.50 = dead cells = hit.
The test system of assay [7] is vraSR promoter (Pvra-lux reporter in strain 923). The assay is described as follows: Primary screen, relative luminescence (vraSR expression). The note with it: primary screen, compound 10 μM with oxacillin 2 μg/mL; <0.50 = vraSR repressed = hit.

Chain of VraR (Q7A4R9 whole entry): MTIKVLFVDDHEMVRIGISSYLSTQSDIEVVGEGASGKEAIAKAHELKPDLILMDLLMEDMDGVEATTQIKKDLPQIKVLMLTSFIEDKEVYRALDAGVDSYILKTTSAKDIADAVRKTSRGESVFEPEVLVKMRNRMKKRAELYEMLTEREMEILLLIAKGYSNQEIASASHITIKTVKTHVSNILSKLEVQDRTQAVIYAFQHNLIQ

Turning to `O=C(Nc1nnc(-c2ccc(F)cc2)o1)c1cccc(Br)c1` [F1374-0119], the dissociation constant (Kd) (in [1]; at VraR; in assay [2]) was > 100 µM each time.
For `Cc1ccc(-c2nnc(NC(=O)c3ccccc3Cl)o2)c(C)c1` [F2518-0150], the equilibrium dissociation constant (Kd) (in assay [1]; on VraR; in assay [2]) was > 100 µM throughout.
On to `COc1cccc(-c2nnc(NC(=O)c3cccc(F)c3)o2)c1` [F1374-0327], for which the Kd (in assay [1]; at VraR; in assay [2]) was > 100 µM throughout.
With `Cc1ccc(C)c(-c2nnc(NC(=O)c3cc(Cl)sc3Cl)o2)c1` [F2518-0360], the Kd (in [1]; at VraR; in assay [2]) was > 100 µM in each case.
For `O=C(Nc1nnc(-c2ccc(Br)cc2)o1)c1cccc(C(F)(F)F)c1` [F2518-0477], the Kd (in [1]; at VraR; in [2]) was > 100 µM throughout.
For `O=C(Nc1nnc(-c2ccccc2Cl)o1)c1cccc(Oc2ccccc2)c1` [F1374-0081], the Kd (in assay [1]; on VraR; in assay [2]) was > 100 µM each time.
`O=C(Nc1nnc(-c2cc(Cl)ccc2Cl)o1)c1ccc(Cl)s1` [F2518-0042]: the Kd (in assay [1]; at VraR; in [2]) was > 100 µM throughout.
As for `Cc1ccc(-c2nnc(NC(=O)c3nc4ccccc4s3)o2)c(C)c1` [F2518-0183], the Kd (in assay [1]; on VraR; in assay [2]) was > 100 µM throughout.
For the compound `COc1cccc(-c2nnc(NC(=O)c3ccc(Cl)s3)o2)c1` [F1374-0351], the Kd (in assay [1]; on VraR; in assay [2]) was > 100 µM each time.
Regarding `CC(C)(C)c1csc(NC(=O)c2cccc(NS(=O)(=O)c3ccc(F)cc3)c2)n1` [F2619-0556], the “RG Ox avg” value in assay [3] turned out to be 0.01. The “RL Ox avg” value in [4] was found to be 0.28. Further, the vraSR repressing synergist in [4] was determined as 1. confirmed. The “maximum non-GI conc” value in assay [5] was determined as 400 µg/mL. The “Ox MIC in presence of compound” value in the assay on multiple strains of MRSA (isolate 923, SCCmec IV, ST 8, compound at 4 mg/L) was <0.25 µg/mL; in the assay on multiple strains of MRSA (isolate 1176, SCCmec II, ST 231, compound at 4 mg/L), <0.5 µg/mL; in the assay with multiple strains of MRSA (isolate 2169, SCCmec IV, ST 72, compound at 4 mg/L) it was <0.25 µg/mL; in the assay with multiple strains of MRSA (isolate 8004-01, SCCmec III, ST 239, compound at 4 mg/L) it was <4 µg/mL; in the assay on multiple strains of MRSA (isolate 8010-01, SCCmec IV, ST 8, compound at 4 mg/L), <0.25 µg/mL; in the assay on multiple strains of MRSA (isolate 8227-01, SCCmec IV, ST 87, compound at 4 mg/L) it was <0.06 µg/mL. Moreover, the “Ox MIC in presence of compound” value with multiple strains of MRSA (isolate 11095, SCCmec II, ST 105, compound at 4 mg/L) was 128 µg/mL; in the assay on multiple strains of MRSA (isolate 13113, SCCmec II, ST 5, compound at 4 mg/L), <0.13 µg/mL; in the assay on multiple strains of MRSA (isolate 13354, SCCmec IV, ST 5, compound at 4 mg/L) it was <0.13 µg/mL; in the assay on multiple strains of MRSA (isolate 14315, SCCmec IV, ST 1, compound at 4 mg/L) it was <0.5 µg/mL; in the assay with multiple strains of MRSA (isolate Q2461, SCCmec VT, ST 59, compound at 4 mg/L), 1 µg/mL. In addition, the “RG avg (relative growth)” value in assay [6] is 0.25. For the same compound, the “RL avg (relative luminescence)” value in assay [7] is 0.52.
On to `Cc1cc2c(C(C)C)c(O)c(O)c(C=O)c2c(O)c1-c1c(C)cc2c(C(C)C)c(O)c(O)c(C=O)c2c1O` [Gos, Gossypol, reference compound], for which the Kd (in [1]; at VraR) was > 100 µM in each case.
Take `Oc1ccc(C2(c3cccc(Br)c3)CCCCC2)cc1` [F0020-1560]: the “RG Ox avg” value in [3] came to 0.68. The “RL Ox avg” value in [4] is recorded as 0.17. The vraSR repressing synergist in assay [4] amounted to 2. possible. In addition, the “maximum non-GI conc” value in assay [5] was 40 µg/mL. Further, the “Ox MIC in presence of compound” value in the assay with multiple strains of MRSA (isolate 923, SCCmec IV, ST 8, compound at 1 mg/L) is 1 µg/mL; in the assay with multiple strains of MRSA (isolate 1176, SCCmec II, ST 231, compound at 1 mg/L), <0.5 µg/mL; in the assay with multiple strains of MRSA (isolate 2169, SCCmec IV, ST 72, compound at 1 mg/L) it was 1 µg/mL; with multiple strains of MRSA (isolate 8004-01, SCCmec III, ST 239, compound at 1 mg/L), <4 µg/mL; in the assay with multiple strains of MRSA (isolate 8010-01, SCCmec IV, ST 8, compound at 1 mg/L) it was 1 µg/mL; in the assay with multiple strains of MRSA (isolate 8227-01, SCCmec IV, ST 87, compound at 1 mg/L), 0.25 µg/mL. Also, the “Ox MIC in presence of compound” value with multiple strains of MRSA (isolate 11095, SCCmec II, ST 105, compound at 1 mg/L) is <2 µg/mL; in the assay with multiple strains of MRSA (isolate 13113, SCCmec II, ST 5, compound at 1 mg/L), <0.13 µg/mL; with multiple strains of MRSA (isolate 13354, SCCmec IV, ST 5, compound at 1 mg/L), <0.13 µg/mL; in the assay on multiple strains of MRSA (isolate 14315, SCCmec IV, ST 1, compound at 1 mg/L) it was <0.5 µg/mL; in the assay on multiple strains of MRSA (isolate Q2461, SCCmec VT, ST 59, compound at 1 mg/L), 4 µg/mL. Moreover, in assay [6], the “RG avg (relative growth)” value came to 0.02. The “RL avg (relative luminescence)” value in assay [7] is reported as −0.01.
